In US20260069601A1, “PHARMACEUTICAL COMPOSITION FOR INHALATION FOR PREVENTING OR TREATING RESPIRATORY DISEASE” (LEXENPHARM (SUZHOU) LIMITED, priority 2022, published 2026):

Experiment: Stability test of indacaterol maleate-glycopyrronium bromide compositions at different pH (Example 7)
Format: physicochemical
Conditions: 4 weeks at 60° C.
Method: The soft mist solutions of indatarol indacaterol maleate and glycopyrronium bromide at different pH were prepared as follows. Six 0.02 mM citric acid solution each 500 mL were prepared. pH was adjusted to 2.5, 3.0, 3.5, 4.0, 4.5, and 5.0 with 1 M (mol/L) of sodium hydroxide solution. Indacaterol maleate and glycopyrronium bromide were added. In order to improve the dissolution of indacaterol, all the drug solutions were ultrasonicated in a water bath at 30° C. for 20 min until no visible particles were found.
The drug solutions were placed in glass bottles and stability test was performed to determine the contents of indacaterol and glycopyrronium bromide and total impurities in the samples at the initial state and after 4 weeks at 60° C.

optimal (best) pH for stability	pH at which the active ingredient is stable	Structure (SMILES)
3.5		CCc1cc2c(cc1CC)CC(NC[C@H](O)c1ccc(O)c3[nH]c(=O)ccc13)C2 [Indacaterol, indacaterol]
	2.5-3.5	C[N+]1(C)CCC(OC(=O)C(O)(c2ccccc2)C2CCCC2)C1 (centres unmarked) [glycopyrronium bromide]
